pKi: −log10 of the molar value.
What follows are compounds tested against T1, histamine 3 receptor (H3R) (Homo sapiens, UniProt Q9Y5N1) (assay: Binding assay with 3H-(R)α-Methylhistamine (competition binding, membranes of the human HR3-CHO cell line)). Settings: competition against 3H(R)α-Methylhistamine (1 nM), Ki calculated from IC50 by Cheng-Prusoff.
T1 construct: expressed in transfected cells; host or cells: CHO cells (HR3-CHO cell line), membranes
Procedure: Binding Assay with ^3H—(R)α-Methylhistamine
Saturation binding experiments were performed using HR3-CHO membranes prepared as described in Takahashi, K, Tokita, S., Kotani, H. (2003) J. Pharmacol. Exp. Therapeutics 307, 213-218.
An appropriate amount of membrane (60 to 80 μg protein/well) was incubated with increasing concentrations of ^3H(R)α-Methylhistamine di-hydrochloride (0.10 to 10 nM). Non specific binding was determined using a 200 fold excess of cold (R)α-Methylhistamine dihydrobromide (500 nM final concentration). The incubation was carried out at room temperature (in deep-well plates shaking for three hours). The final volume in each well was 250 μl. The incubation was followed by rapid filtration on GF/B filters (pre-soaked with 100 μl of 0.5% PEI in Tris 50 mM shaking at 200 rpm for two hours). The filtration was made using a cell-harvester and the filter plates were then washed five times with ice cold washing buffer containing 0.5 M NaCl. After harvesting, the plates were dried at 55° C. for 60 min, then we added scintillation fluid (Microscint 40, 40 microl in each well) and the amount of radioactivity on the filter was determined in Packard top-counter after shaking the plates for two hours at 200 rpm at room temperature.
Binding Buffer: 50 mM Tris-HCl pH 7.4 and 5 mM MgCl2x 6H2O pH 7.4. Washing Buffer: 50 mM Tris-HCl pH 7.4 and 5 mM MgCl2x6H2O and 0.5 M NaCl pH 7.4.
Indirect measurement of affinity of H3R inverse agonists: twelve increasing concentrations (ranging from 10 μM to 0.3 nM) of the selected compounds were always tested in competition binding experiments using membrane of the human HR3-CHO cell line. An appropriate amount of protein, e.g. approximately 500 cpm binding of RAMH at Kd, were incubated for 1 hour at room temperature in 250 μl final volume in 96-well plates in presence of ^3H(R)α-Methylhistamine (1 nM final concentration=Kd). […]
All compounds were tested at a single concentration in duplicates. […] Ki's were calculated from IC50 based on Cheng-Prusoff equation (Cheng, Y, Prusoff, WH (1973) Biochem Pharmacol 22, 3099-3108).

T1 sequence (Q9Y5N1 whole entry): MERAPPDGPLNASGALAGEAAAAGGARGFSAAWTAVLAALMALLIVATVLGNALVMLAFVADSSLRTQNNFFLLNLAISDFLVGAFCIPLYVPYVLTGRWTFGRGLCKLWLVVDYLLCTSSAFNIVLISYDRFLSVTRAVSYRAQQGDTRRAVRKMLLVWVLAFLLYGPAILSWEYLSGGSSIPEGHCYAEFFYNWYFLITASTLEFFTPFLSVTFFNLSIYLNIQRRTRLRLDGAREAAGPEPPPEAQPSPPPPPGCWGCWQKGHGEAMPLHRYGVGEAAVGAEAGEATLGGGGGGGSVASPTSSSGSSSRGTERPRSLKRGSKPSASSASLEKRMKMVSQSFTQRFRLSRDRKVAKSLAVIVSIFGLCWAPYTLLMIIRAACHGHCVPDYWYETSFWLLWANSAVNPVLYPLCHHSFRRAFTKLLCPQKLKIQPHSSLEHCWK

Row | pKi | Structure (SMILES)
1 | 7.32 | O=C(c1cc2ccc(N3CCN(C4CCCC4)CC3)nc2[nH]1)N1CCCCC1 [Example 1, [6-(4-Cyclopentyl-piperazin-1-yl)-1H-pyrrolo[2,3-b]pyridin-2-yl]-piperidin-1-yl-methanone]
2 | 7.08 | O=C(c1cc2ccc(N3CCN(C4CCCC4)CC3)nc2[nH]1)N1CCC(O)C1 (stereo not drawn) [Example 8, [6-(4-cyclopentyl-piperazin-1-yl)-1H-pyrrolo[2,3-b]pyridin-2-yl]-(3-hydroxy-pyrrolidin-1-yl)-methanone]
3 | 7.64 | O=C(NC1CCCCC1)c1cc2ccc(N3CCN(C4CCCC4)CC3)nc2[nH]1 [Example 4, 6-(4-cyclopentyl-piperazin-1-yl)-1H-pyrrolo[2,3-b]pyridine-2-carboxylic acid cyclohexylamide]

Reference: patent US7351708B2, “Pyrrolo [2,3-b] pyridine derivatives” (Hoffmann-La Roche Inc., priority 2005, dated 2008)
